According to ChEMBL document CHEMBL5331143, “Stereochemistry-Driven Interactions of α,γ-Peptide Ligands with the Neuropeptide Y Y4-Receptor” (J Med Chem, 2023):
pEC50, pKi: −log10 of the molar value. Starred links: 1 amine or outer side, 2 acyl side, 3 side chain; linkers in the order of their positions; H or OH if unused. Non-standard residues stand in square brackets, D forms with d. Residues, ends and D or L forms follow the SMILES beside them. X1 = O=C([C@@H]1C[C@@H](c2ccccc2)[C@@H]1CN[*:1])[*:2]; X2 = O=C([C@H]1C[C@H](c2ccccc2)[C@H]1CN[*:1])[*:2]

What was measured:
[1] = molecular target: T1, Neuropeptide Y receptor type 4 (Homo sapiens, UniProt P50391); test: Agonist potency at human Y4 receptor expressed in HEK293T-NlucN-mGSi/Y4R-NlucC cells assessed as intrinsic activity by miniGsi protein recruitment assay relative to hPP; type: cell-based; details: filed as agonist
[2] = molecular target: T1, Neuropeptide Y receptor type 4; test: Agonist potency at human Y4 receptor expressed in HEK293T-NlucN-mGSi/Y4R-NlucC cells by miniGsi protein recruitment assay; type: cell-based; details: for pEC50: read-out: EC50; for EC50: read-out: pEC50 (converted)
[3] = molecular target: T2, Neuropeptide Y receptor type 2 (Homo sapiens, UniProt P49146); test: Displacement of [3H]propionyl-pNPY from human Y2 receptor expressed in CHO cells measured after 90 mins by MicroBeta plate counter based competition binding assay; type: cell-based; details: for pKi: read-out: Ki; for Ki: read-out: pKi (converted)
T2 sequence (P49146 whole entry): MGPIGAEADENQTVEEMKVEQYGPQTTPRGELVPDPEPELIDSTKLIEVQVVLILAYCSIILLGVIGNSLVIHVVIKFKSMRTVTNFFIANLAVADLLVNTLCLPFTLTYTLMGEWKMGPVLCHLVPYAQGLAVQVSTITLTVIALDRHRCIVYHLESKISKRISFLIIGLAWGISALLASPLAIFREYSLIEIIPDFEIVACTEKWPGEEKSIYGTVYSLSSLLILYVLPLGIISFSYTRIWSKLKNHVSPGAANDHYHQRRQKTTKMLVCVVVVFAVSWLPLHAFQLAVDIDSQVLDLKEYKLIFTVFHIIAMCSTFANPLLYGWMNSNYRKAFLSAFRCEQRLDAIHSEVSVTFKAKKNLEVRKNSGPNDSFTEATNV

[4] = Stability in human plasma assessed as rate constant by measuring loss of intact peptide at 100 uM measured upto 24 hrs at 37 degC; type: ADME, cell-free
[5] = molecular target: T3, Neuropeptide Y receptor type 5 (Homo sapiens, UniProt Q15761); test: Displacement of [3H]propionyl-pNPY from human Y5 receptor expressed in HEC-1B cells measured after 90 mins by MicroBeta plate counter based competition binding assay; type: cell-based, HEC-1B cell line; details: for pKi: read-out: Ki; for Ki: read-out: pKi (converted)
T3 sequence (Q15761 whole entry): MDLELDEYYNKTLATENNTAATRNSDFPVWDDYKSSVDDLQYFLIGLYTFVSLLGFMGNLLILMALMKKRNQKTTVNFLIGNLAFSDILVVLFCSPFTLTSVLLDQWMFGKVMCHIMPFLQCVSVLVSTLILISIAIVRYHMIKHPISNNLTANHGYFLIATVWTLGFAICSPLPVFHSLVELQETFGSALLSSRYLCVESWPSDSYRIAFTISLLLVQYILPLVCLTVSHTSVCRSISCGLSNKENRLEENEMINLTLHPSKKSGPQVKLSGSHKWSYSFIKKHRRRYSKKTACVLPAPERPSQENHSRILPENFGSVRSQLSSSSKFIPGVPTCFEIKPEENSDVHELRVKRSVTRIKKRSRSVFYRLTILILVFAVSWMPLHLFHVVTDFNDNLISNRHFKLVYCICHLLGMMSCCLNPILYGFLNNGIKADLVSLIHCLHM

[6] = Stability in human plasma assessed as half life time by measuring loss of intact peptide at 100 uM measured upto 24 hrs at 37 degC; type: ADME, cell-free
[7] = Stability in human plasma assessed as time constant by measuring loss of intact peptide at 100 uM measured upto 24 hrs at 37 degC; type: ADME, cell-free
[8] = Stability in human plasma assessed as intact remained level in presence of ramipril ACE inhibitor measured over 4 hrs at 37 degC; type: ADME, cell-free
[9] = molecular target: T1, Neuropeptide Y receptor type 4; test: Displacement of [3H]UR-KK200 from human Y4 receptor expressed in CHO-Gqi5-mtAQE cells measured after 90 mins by MicroBeta plate counter based competition binding assay; type: cell-based; details: for pKi: read-out: Ki; for Ki: read-out: pKi (converted)

T1 sequence (P50391 whole entry): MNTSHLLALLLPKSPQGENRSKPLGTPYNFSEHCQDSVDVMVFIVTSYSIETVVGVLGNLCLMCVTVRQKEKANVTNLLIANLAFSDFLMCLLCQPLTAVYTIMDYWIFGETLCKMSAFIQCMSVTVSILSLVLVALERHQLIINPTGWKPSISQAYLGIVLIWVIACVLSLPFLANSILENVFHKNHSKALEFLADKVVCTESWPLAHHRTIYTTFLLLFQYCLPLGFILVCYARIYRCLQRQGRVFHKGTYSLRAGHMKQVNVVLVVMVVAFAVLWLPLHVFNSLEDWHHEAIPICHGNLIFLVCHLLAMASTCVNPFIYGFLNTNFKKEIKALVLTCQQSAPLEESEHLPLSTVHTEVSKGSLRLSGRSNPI

Q: What does the source list for CC(=O)N[C@@H](CCCNC(=N)N)C(=O)N[C@@H](Cc1ccc(O)cc1)C(=O)N[C@@H](CCCNC(=N)N)C(=O)N[C@@H](CC(C)C)C(=O)N[C@@H](CCCNC(=N)N)C(=O)N[C@@H](Cc1ccc(O)cc1)C(N)=O?
A: Intrinsic activity [1]: 0.58; pEC50 [2]: 6.96; pKi [3]: < 5.30; Ki [3]: > 5010 nM; half-life at 100 µM [4]: 1.4 h; pKi [5]: < 5.30; Ki [5]: > 5010 nM; half-life at 100 µM [6]: 2 h; K [7]: 0.5 h⁻¹

Q: For CC(C)C[C@H](NC(=O)[C@@H]1CCCNC(=N)NC(=O)NCCCCNC(=O)CCC(=O)N[C@@H](CCCNC(=N)N)C(=O)N[C@@H](Cc2ccc(O)cc2)C(=O)N1)C(=O)N[C@@H](CCCNC(=N)N)C(=O)N[C@@H](Cc1ccc(O)cc1)C(N)=O, which Intrinsic activity [1] is on record?
A: Its Intrinsic activity is 68%.

Q: What about the pEC50 ([2]; hek293t) of the same compound?
A: Its pEC50 is 8.77.

Q: Which Intrinsic activity [1] does the source give for CC(C)C[C@H](NC(=O)[C@@H](N)CCCNC(=N)N)C(=O)N[C@@H](CCCNC(=N)N)C(=O)N[C@@H](Cc1ccc(O)cc1)C(N)=O here?
A: The Intrinsic activity was 54%.

Q: For CC(C)C[C@H](NC(=O)[C@@H]1CCCNC(=N)NC(=O)NCCCCNC(=O)CCC(=O)N[C@@H](CCCNC(=N)N)C(=O)N[C@@H](Cc2c[nH]c3ccccc23)C(=O)N1)C(=O)N[C@@H](CCCNC(=N)N)C(=O)N[C@@H](Cc1ccc(O)cc1)C(N)=O, which Intrinsic activity [1] is on record?
A: The Intrinsic activity was 80%.

Q: Which Intrinsic activity [1] does the source give for CC(=O)N[C@@H](CCCNC(=N)N)C(=O)NC[C@@H]1[C@H](C(=O)N[C@@H](CCCNC(=N)N)C(=O)N[C@@H](CC(C)C)C(=O)N[C@@H](CCCNC(=N)N)C(=O)N[C@@H](Cc2ccc(O)cc2)C(N)=O)C[C@H]1c1ccccc1 (Ac-R[X1]RLRY-NH2) here?
A: The Intrinsic activity was 0.5.

Q: And the pEC50 [2]?
A: The pEC50 was 7.70.

Q: And the EC50 [2]?
A: The EC50 was 18.6 nM.

Q: What about the pKi ([3]; cho) of the same compound?
A: The pKi was less than 6.00.

Q: What about the Ki [3] of the same compound?
A: Its Ki is greater than 1000 nM.

Q: What about the half-life at 100 µM [4] of the same compound?
A: The half-life at 100 µM was 0.4 h.

Q: What about the Stability [8] of the same compound?
A: The Stability was “Stable”.

Q: And the pKi [5]?
A: The pKi was less than 5.52.

Q: What about the Ki [5] of the same compound?
A: The Ki was greater than 3160 nM.

Q: And the pKi [9]?
A: Its pKi is 9.18.

Q: And the Ki [9]?
A: Its Ki is 0.646 nM.

Q: What about the half-life at 100 µM [6] of the same compound?
A: Its half-life at 100 µM is 0.55 h.

Q: What about the K [7] of the same compound?
A: The K was 1.83 h⁻¹.

Q: What does the source list for CC(=O)N[C@@H](CCCNC(=N)N)C(=O)NC[C@@H]1[C@H](C(=O)N[C@@H](CCCNC(=N)N)C(=O)NC[C@@H]2[C@H](C(=O)N[C@@H](CCCNC(=N)N)C(=O)N[C@@H](Cc3ccc(O)cc3)C(N)=O)C[C@H]2c2ccccc2)C[C@H]1c1ccccc1 (Ac-R[X1]R[X1]RY-NH2)?
A: pKi [3]: < 5.52; Ki [3]: > 3160 nM; pKi ([5]; hec-1b cell line): < 6.00; Ki [5]: > 1000 nM; pKi [9]: 6.47; Ki [9]: 331 nM

Q: For CC(=O)N[C@@H](CCCNC(=N)N)C(=O)NC[C@H]1[C@@H](C(=O)N[C@@H](CCCNC(=N)N)C(=O)N[C@@H](CC(C)C)C(=O)N[C@@H](CCCNC(=N)N)C(=O)N[C@@H](Cc2ccc(O)cc2)C(N)=O)C[C@@H]1c1ccccc1 (Ac-R[X2]RLRY-NH2), which Intrinsic activity [1] is on record?
A: The Intrinsic activity was 0.39.

Q: What about the pEC50 [2] of the same compound?
A: Its pEC50 is 6.21.

Q: What about the EC50 [2] of the same compound?
A: Its EC50 is 468 nM.

Q: And the pKi [3]?
A: The pKi was less than 5.52.

Q: What about the Ki [3] of the same compound?
A: Its Ki is greater than 3160 nM.

Q: And the half-life at 100 µM [4]?
A: Its half-life at 100 µM is 2.2 h.

Q: And the Stability [8]?
A: Its Stability is “Stable”.

Q: And the pKi [5]?
A: The pKi was less than 5.52.

Q: What about the Ki [5] of the same compound?
A: Its Ki is greater than 3160 nM.

Q: What about the pKi [9] of the same compound?
A: Its pKi is 7.92.

Q: And the half-life at 100 µM [6]?
A: Its half-life at 100 µM is 3.2 h.

Q: And the K [7]?
A: Its K is 0.31 h⁻¹.

Q: With CC(=O)N[C@@H](CCCNC(=N)N)C(=O)NC[C@H]1[C@@H](C(=O)N[C@@H](CCCNC(=N)N)C(=O)NC[C@H]2[C@@H](C(=O)N[C@@H](CCCNC(=N)N)C(=O)N[C@@H](Cc3ccc(O)cc3)C(N)=O)C[C@@H]2c2ccccc2)C[C@@H]1c1ccccc1 (Ac-R[X2]R[X2]RY-NH2) as the compound, how does the pKi [3] read?
A: The pKi was less than 5.52.

Q: What about the Ki [3] of the same compound?
A: The Ki was greater than 3160 nM.

Q: What about the pKi ([5]; hec-1b cell line) of the same compound?
A: Its pKi is less than 6.00.

Q: What about the Ki [5] of the same compound?
A: Its Ki is greater than 1000 nM.

Q: And the pKi [9]?
A: The pKi was 6.04.

Q: And the Ki [9]?
A: The Ki was 891 nM.
